Results as given in patent EP1600504A1, “Control of transglutaminase catalyzed protein modification by selective irreversible transglutaminase inhibitors” (N-Zyme BioTec GmbH, priority 2004, dated 2005).
Blank lines part the entries; values can stand above or below the compound they belong to. Peptide text beside a SMILES is read from it. * marks the point of attachment. Cbz = O=C(OCc1ccccc1)*; Acryloyl = C=CC(=O)*; ClAc = O=C(CCl)*

Tests used:
[1] = target: T1, bakterielle Transglutaminase (Streptomyces mobaraensis, UniProt P81453); assay: Labelling of recombinant hIRS1-p30-N-K stopped by inhibitor, SDS-PAGE fluorescence (Beispiel 6); assay type: biochemical
T1 sequence (P81453 77-407): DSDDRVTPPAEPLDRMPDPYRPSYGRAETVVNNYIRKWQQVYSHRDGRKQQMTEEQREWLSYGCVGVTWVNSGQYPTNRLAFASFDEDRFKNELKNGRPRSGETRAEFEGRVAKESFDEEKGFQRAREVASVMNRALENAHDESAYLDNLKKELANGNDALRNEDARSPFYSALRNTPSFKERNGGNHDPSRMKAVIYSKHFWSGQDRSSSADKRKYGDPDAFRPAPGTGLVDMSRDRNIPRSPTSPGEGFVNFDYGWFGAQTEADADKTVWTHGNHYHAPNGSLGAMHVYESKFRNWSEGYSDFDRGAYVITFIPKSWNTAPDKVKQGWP
Description: (§1) Alle nachfolgend beschriebenen Experimente wurden nach dem gleichen Standardprotokoll durchgeführt. Dabei werden das jeweilige Zielprotein und das farbstofftragende amin- oder glutaminhaltige Substrat in einem geeigneten Puffer vorgelegt und für 5 Min. auf 37°C temperiert. Anschließend wird durch Zugabe von Transglutaminase die Reaktion gestartet. Nach variierenden Inkubationszeiten, durch die jeweils verschiedene Markierungsgrade erreicht werden, wird durch Zugabe eines Inhibitors die Transglutaminase vollständig und irreversibel inaktiviert (Reaktionsabbruch 1). In Kontrollexperimenten wird die Markierungsreaktion durch Abtrennung des ungebundenen, farbstofftragenden Substrates unterbrochen (Reaktionsabbruch 2). Die Abtrennung des ungebundenen Farbstoffes erfolgt unter Normaldruck über eine PD-10-Säule (Amersham Biosciences). Dieses allgemein einsetzbare Verfahren zur schnellen Abtrennung kleiner Moleküle von Makromolekülen wie Proteinen basiert auf dem Prinzip der Gelpermeationschromatographie und kann als das vorteilhafteste Verfahren zur Reaktionskontrolle nach dem Stand der Technik angesehen werden. Andere Verfahren, mit denen die weitere katalytische Markierungsreaktion abgebrochen werden könnte, sind weniger geeignet oder nicht allgemein einsetzbar (z. B. thermische, unspezifische chemische oder affinitätschromatographische Methoden). […]

Transglutaminase [2] = assay: Transglutaminase-catalysed labelling reaction stopped by inhibitor, SDS-PAGE fluorescence (Beispiel 5); assay type: biochemical; conditions: stopped after 2, 5 and 10 min, then 30 min RT
Description: as §1

Transglutaminase [3] = assay: Transglutaminase-catalysed labelling reaction stopped by inhibitor, SDS-PAGE fluorescence (Beispiel 1); assay type: biochemical; conditions: Zielprotein N,N-Dimethylcasein, stopped after 2, 10 and 20 min, large excess of unbound dye present, transglutaminase only given in an image table
Description: as §1

[4] = target: T2, Meerschweinchenlebertransglutaminase (Cavia cutleri, UniProt P08587); assay: Labelling of recombinant hLeptin stopped by inhibitor, RP-HPLC (Beispiel 7); assay type: biochemical, Meerschweinchen
T2 sequence (P08587 2-690 limits assumed): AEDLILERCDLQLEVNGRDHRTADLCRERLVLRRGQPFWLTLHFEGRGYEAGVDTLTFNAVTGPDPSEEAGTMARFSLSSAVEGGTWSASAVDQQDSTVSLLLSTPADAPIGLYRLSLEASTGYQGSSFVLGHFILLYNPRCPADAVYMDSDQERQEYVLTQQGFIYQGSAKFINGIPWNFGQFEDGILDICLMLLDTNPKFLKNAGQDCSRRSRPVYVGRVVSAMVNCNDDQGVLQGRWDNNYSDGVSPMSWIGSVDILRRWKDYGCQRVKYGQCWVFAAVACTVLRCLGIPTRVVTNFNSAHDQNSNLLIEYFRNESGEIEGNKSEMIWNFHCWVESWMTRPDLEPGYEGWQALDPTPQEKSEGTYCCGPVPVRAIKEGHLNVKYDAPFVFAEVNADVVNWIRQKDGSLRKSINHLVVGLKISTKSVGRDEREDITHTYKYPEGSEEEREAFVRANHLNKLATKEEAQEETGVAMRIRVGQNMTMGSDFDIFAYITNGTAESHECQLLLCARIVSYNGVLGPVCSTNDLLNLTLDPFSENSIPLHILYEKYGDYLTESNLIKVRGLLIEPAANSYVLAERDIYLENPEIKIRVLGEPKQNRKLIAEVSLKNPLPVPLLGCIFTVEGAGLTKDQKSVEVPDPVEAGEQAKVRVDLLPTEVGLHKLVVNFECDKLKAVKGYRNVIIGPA
Description: as §1, with “Methoden). Die Gelpermeationschromatographie wurde jeweils so schnell wie technisch machbar durchgeführt. Dazu wird auf die vorkonditionierte PD-10-Säule 2,5 ml des Reaktionsvolumens aufgetragen und die Lösung vollständig in das Trennmaterial eingebracht. Anschließend wird das Protein mit 3,5 ml Puffer eluiert. Die niedermolekularen Substanzen verbleiben auf der Säule. Der Gesamtprozess benötigt eine Zeitspanne von mindestens 3 Minuten. Während dieser Zeit kann Transglutaminase weiter auf das Zielprotein einwirken.” for “Methoden).”

Transglutaminase [5] = assay: Transglutaminase-catalysed labelling reaction stopped by inhibitor, SDS-PAGE fluorescence (Beispiel 3); assay type: biochemical
Description: as §1

[6] = target: T1, bakterielle Transglutaminase; assay: Labelling of recombinant Concanavalin A stopped by inhibitor, SDS-PAGE fluorescence (Beispiel 4); assay type: biochemical; conditions: rekombinantes Concanavalin A, stopped after 2 and 5 min, then 30 min RT
Description: as §1

Structure (SMILES): COC(=O)[C@H](Cc1ccccc1)NC(=O)[C@H](CCC(=O)C=[N+]=[N-])NC(=O)OCc1ccccc1 [Z-DON-Phe-OMe, N^α-Benzyloxycarbonyl-L-(6-diazo-5-oxonorleucinyl)-L-phenylalaninmethylester]
weitere Modifikation des Zielproteins nach Abtrennung von Farbstoff und Inhibitor ([1]; dye and inhibitor removed, kept at RT 30 min, 1 h, 2 h, 4 h): keine weitere Modifikation des Zielproteins
Inhibition der Transglutaminase ([1]; stopped after 5 min): vollständige und irreversible Inhibition der Transglutaminase

Structure (SMILES): O=C(O)CNC(=O)[C@H](COC(=O)CCl)NC(=O)OCc1ccccc1 [Z-Ser(OAcCl)-Gly-OH, N^α-Benzyloxycarbonyl-L-serinyl(O-chloracetyl)glycin] (Cbz-Ser(ClAc)-Gly-OH)
weitere Markierungsreaktionen nach Inhibitorzugabe (Transglutaminase [2]): keine weiteren Markierungsreaktionen mehr

Structure (SMILES): CC[C@H](C)[C@H](NC(=O)[C@H](CCC(N)=O)NC(=O)[C@H](CCC(=O)C[S+](C)C)NC(=O)OC(C)(C)C)C(=O)N[C@H](C(=O)OC)C(C)C [Boc-SON-Gln-Ile-Val-OH, N^α-tert.-Butyloxycarbonyl-L-(6-dimethylsulfonium-5-oxonorleucinyl)-L-glutaminyl-L-isoleucinyl-L-valinmethylester]
weitere katalytische Reaktion nach Zugabe des Inhibitors (Transglutaminase [3]): Eine weitere katalytische Reaktion findet nach Zugabe des Inhibitors nicht statt

Structure (SMILES): C=CC(=O)NCCCC[C@H](NC(=O)OCc1ccccc1)C(=O)NCC(=O)O [Z-Lys(Acryloylamid)-Gly-OH, N^α-Benzyloxycarbonyl-L-lysinyl(ε-acryloyl)glycin] (Cbz-Lys(Acryloyl)-Gly-OH)
Inaktivierung der Meerschweinchenlebertransglutaminase ([4]; stopped after 5 min): inaktiviert Meerschweinchenlebertransglutaminase vollständig
weitere Labeling- und Quervernetzungsreaktionen ([4]; stopped after 5 min, then 30 and 60 min RT): keine weitere Labeling- und Quervernetzungsreaktionen
weitere enzymatische Reaktionen nach Lagerung ([4]; storage 10 days at -20°C, then one hour RT): keine weiteren enzymatischen Reaktionen mehr

weiteres Labeling des Zielproteins nach Abtrennung des Inhibitors (Transglutaminase [5]; inhibitor removed by gel permeation chromatography, fresh unbound dye added, 30 min RT): kein weiteres Labeling des Zielproteins
Markierungsreaktion nach Zugabe des Inhibitors (Transglutaminase [5]; stopped after 5 min, sample directly after inhibitor addition): wird die Reaktion gestoppt
Structure (SMILES): [N-]=[N+]=CC(=O)CC[C@H](NC(=O)OCc1ccccc1)C(=O)NCC(=O)O [Z-DON-Gly-OH, N^α-Benzyloxycarbonyl-L-(6-diazo-5-oxonorleucinyl)glycin]

weitere Markierungsreaktion nach Inhibitorzugabe [6]: keine weitere Markierungsreaktion mehr
Structure (SMILES): COC(=O)[C@H](Cc1ccccc1)NC(=O)[C@H](CCC(=O)C[S+](C)C)NC(=O)OCc1ccccc1 [Z-SON-Phe-OMe, Nα-Benzyloxycarbonyl-L-(6-dimethylsulfonium-5-oxonorleucinyl)phenylalaninmethylester]
